Activity calls are given as the source filed them. How the calls were made is not given here.
Target: Bcl-2-related protein A1 (Homo sapiens) (UniProt Q16548)
Experiment: Bfl-1/Bim complex disruptors – biochemical, multiplexed, bead-based flow cytometry, HTS hits, confirmation (AID 2080)
Conditions: Bim peptide-Bfl-1 binding; for inhibition of binding: at 100 µM (top of the series)

Sequence of Bcl-2-related protein A1 (Homo sapiens) (Q16548 whole entry, looked up): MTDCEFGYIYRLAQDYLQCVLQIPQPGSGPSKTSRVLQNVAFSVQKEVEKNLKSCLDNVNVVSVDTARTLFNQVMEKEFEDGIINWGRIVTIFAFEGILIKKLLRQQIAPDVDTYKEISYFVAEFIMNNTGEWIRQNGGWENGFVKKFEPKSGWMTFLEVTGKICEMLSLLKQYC

SMILES | inhibition of binding | EC50 [µM]
Cc1ccc(C=NNC(=O)CSc2nnc(-c3ccc(Cl)cc3)n2-c2ccccc2)o1 | inactive | 
Cc1ccc(-c2cc(C(=O)Nc3nccs3)c3ccccc3n2)o1 | inactive | 
COc1cc(CNc2ccc3[nH]c(=O)[nH]c3c2)cc(Br)c1OCC(=O)NC(C)(C)C | inactive | 
CNC1CCC(Br)CC(C(=O)/C=C/c2cccc(OC)c2OC)C1=O (stereo not drawn) | inactive | 
COc1ccc(N2C(=O)C(Cl)=C(NC3C(=O)N(c4ccccc4)N(C)C3C)C2=O)cc1 (stereo not drawn) |  | 1.24
O=C1NC(=O)C2(Cc3c(nc4ccccn4c3=O)N3CCCCCC32)C(=O)N1Cc1ccccc1 (stereo not drawn) | inactive | 
Cc1ccc(-c2nc3c(c(=O)[nH]c(=O)n3Cc3ccccc3)n2C)o1 | inactive | 
O=c1c2c(n3nnnc3n1Cc1ccccc1)-c1ccccc1CC21CCCC1 | inactive | 
O=C(/C=C/c1ccc(-c2ccccc2[N+](=O)[O-])o1)c1ccccc1 | inactive | 
CCN(CC)C(=O)COC(=O)c1cc(-c2ccco2)nc2ccccc12 | inactive | 
O=C1c2ccccc2C(=O)N1CN(C(=O)COc1ccc(Cl)cc1Cl)c1cccc(F)c1 | inactive | 
CCOc1ccccc1CNc1ccc(O)cc1 | inactive | 
CCN(CC)c1ccc(NC(=O)COc2ccccc2C)cc1S(=O)(=O)Nc1ccccc1OC | inactive | 

Source: PubChem BioAssay AID2080 (NMMLSC, 2009)
